Data as given in ChEMBL document CHEMBL1177820, “Diazinones as P2 replacements for pyrazole-based cathepsin S inhibitors” (Bioorg Med Chem Lett, 2010).

Assays:
[1] = Apparent permeability from apical to basolateral side in […] TC7 cells; assay type: ADME, cell-based; conditions: Caco-2
[2] = Apparent permeability from basolateral to apical side in […] TC7 cells; assay type: ADME, cell-based; conditions: Caco-2

Cn1c(=O)n(C2CCN(CCCn3nccc(-c4ccc(Cl)c(CNC(=O)c5ccc(F)cc5)c4)c3=O)CC2)c2cc(Cl)ccc21
Papp A→B [1]: 1.3 ×10⁻⁶ cm/s
Papp B→A [2]: 1.5 ×10⁻⁶ cm/s

Cn1c(=O)n(C2CCN(CCCn3cncc(-c4ccc(Cl)c(CNC(=O)c5ccc(F)cc5)c4)c3=O)CC2)c2cc(Cl)ccc21
Papp A→B [1]: 2.5 ×10⁻⁶ cm/s
Papp B→A [2]: 2.9 ×10⁻⁶ cm/s

Cn1c(=O)n(C2CCN(CCCn3ccnc(-c4ccc(Cl)c(CNC(=O)c5ccc(F)cc5)c4)c3=O)CC2)c2cc(Cl)ccc21
Papp A→B [1]: 0.6 ×10⁻⁶ cm/s
Papp B→A [2]: 3.7 ×10⁻⁶ cm/s
